In publication PMC5078989, “Targeted inhibition of the COP9 signalosome for treatment of cancer” (Nature Communications, 2016) one finds AMAX data, which are given here for one compound.

Where only a bound is given, the exact number is not on record here.

What all share (type): cell-based, human
One assay relates to TE-1 cells. Put plainly: Cell viability assay (CellTiter-Glo), TE-1. Particulars: TE-1, 72 h; cytostatic. As to the method:
(§1) Cells were maintained in a humidified incubator at 37 °C and 5% CO2. […] All cells were negatively tested for mycoplasma contamination either by the vendor or in house. […] If not stated otherwise, cells were harvested after incubation for 16 h and subjected to SDS-PAGE and western blotting. The RNA interference experiment was performed with CSN5 stealth siRNA (#HSS116986) and stealth negative control siRNA (#12935-400) (Invitrogen), which were transfected at 10 nM into HCT116 cells using […] (Qiagen) according to the manufacturer's protocols. Seventy-two hours after transfection, cells were harvested and subjected to SDS-PAGE and western blotting (see Supplementary Fig. 7 for all western blottings performed). A standardized CellTiter-Glo Assay (Promega #G7570) based on the quantification of ATP was applied according to the manufacturer's protocol to measure the amount of viable cells in culture. In brief, cells were seeded into 384-well plates at optimal density for each cell line. After 4 h, compounds were added at different concentrations in growth medium and incubated for another 72 h in a humidifying chamber at 37 °C and 5% CO2. Eventually, equal amounts of CellTiter-Glo reagent were added directly to the cells, incubated for 15 min and luminescence was recorded using PHERAstar plate reader (BMG LABTECH GmbH).
On the technique in general: In ATP-based viability assays light output follows the ATP content of the culture.

A further assay concerns NCI-H2030 cells. Put plainly: Cell viability assay (CellTiter-Glo), NCI-H2030. Particulars: NCI-H2030, 72 h; cytostatic. As to the method:
as §1

Another assay deals with HCT116 cells. The experiment in a line: Cell viability assay (CellTiter-Glo), HCT116. Particulars: HCT116, 72 h; cytotoxic. As to the method: as §1

In the case of `CC(C)n1nc(C(F)F)cc1C(=O)Nc1ccc([C@H]2[C@@H](O)CCCc3cncn32)c(-c2ccccc2)c1` [CSN5i-3, 3-(Difluoromethyl)-N-(6-((5S,6S)-6-hydroxy-6,7,8,9-tetrahydro-5H-imidazo[1,5-a]azepin-5-yl)-[1,1′-biphenyl]-3-yl)-1-isopropyl-1H-pyrazole-5-carboxamide], the AMAX entry with TE-1 cells was “about −50%”; in the assay on NCI-H2030 cells, “about −50%”; in the assay with HCT116 cells, at most −95%.
